Data as given in patent US20050069513A1, “Amphiphilic compounds for pharmaceutical or cosmetic use” (Physica S.A.R.L., priority 2001, published 2005).

Test: Formation of ion pair in aqueous phase: solubility / appearance of solutions
Assay type: physicochemical
Details: acylamino acid dispersed in aqueous phase, milky white appearance
Source text: Two aqueous solutions are used. The first contains calcitonin. Due to the fact that the calcitonin is hydrophilic, the solution is clear. […] This second solution has a milky white appearance.
The obtained complex, calcitonin oleyl methyl glycine, is therefore amphiphilic.
Two aqueous solutions are used. The first contains lidocaine dispersed in the aqueous solution. […] This second solution has a milky white appearance.
The obtained complex, lidocaine oleyl glycine, is therefore amphiphilic.
A solution of NaOH in the quantity required for causing precipitation of all of the polymyxin E by deplacement of the sulphate salt is added to a solution of polymyxin E sulphate. Polymyxin E, also known as colistin, thereby goes back to its non-salified, basic structure. The resulting solution, solution B, is thus an aqueous phase with a precipitate of polymyxin E.
The polymyxin is thus resolubilized in the form of an amphiphilic complex, polymyxin E linoleyl glycine.

solubility in water | SMILES
only slightly soluble in water | CCCCCCCC/C=C\CCCCCCCCN(C)CC(=O)O [oleyl methyl glycine]
only slightly soluble in water | CCCCCCCC/C=C\CCCCCCCCNCC(=O)O [oleyl glycine]
only slightly soluble in water | CCCCC/C=C\C/C=C\CCCCCCCCNCC(=O)O [linoleyl glycine]
